Columns and labels:
[1] = molecular target: PAF specific receptor binding site on rabbit platelet plasma membranes (Oryctolagus cuniculus, UniProt G1TEI7); experiment: Inhibition of 3H-PAF binding to rabbit platelet plasma membrane; settings: for inhibition at 0.03 µM: .03 μM; for inhibition at 0.1 µM: .1 μM; for inhibition at 0.3 µM: .3 μM
Method: A. In Vitro Assay: In vitro, they inhibit PAF-induced functions in both the cellular and tissue levels by disturbing the PAF binding to its specific receptor site. The ability of a compound of formula (I) to inhibit the PAF binding to its specific receptor binding site on rabbit platelet plasma membranes was measured by an assay recently developed by us.
The inhibition of H^3 -PAF binding to the rabbit platelet plasma membrane by a PAF-antagonist of Formula (I) was determined by a method employing isotopic labeling and filtration techniques. Generally, a series of Tris-buffered solutions of the selected antagonist at predetermined concentrations were prepared. Each of these solutions contains 1 pmole of ^3 H-PAF, a known amount of the test antagonist, and a sufficient amount of the pH 7.5 Tris-buffer solution (10 mM Tris, 0.25% bovine serum albumin, and 150 mM NaCl per ml water) to make the final volume of 1 ml. After adding into a set of test tubes each with 100 μg of the platelet plasma membrane suspension (S. B. Hwang, et al., Biochemistry, 1983) and one of the Tris-buffer solutions described above, the resulting mixture in each test tube was incubated at 0° C. for about one hour or until the reaction was complete. Two control samples, one of which (C1)contains all the ingredients described above except the antagonist and the other (C2) contains C1 plus a 1000-fold excess of unlabeled PAF, were also prepared and incubated simultaneously with the test samples. After the incubation was completed, the contents of each test tube were filtered under vacuo through a Whatman GF/C fiberglass filter and the residue washed rapidly several times with a total of 20 ml cold (0°-5° C.) Tris-buffer solution. Each washed residue was then suspended in 10 ml scintillation solution (Aquasol 2, New England Nuclear, Connecticut) and the radioactivity was counted in a Packard Tri-Carb 460CD Liguid Scintillation System. Defining the counts from a test sample as "Total binding with antagonist"; the counts from the control sample C1, as "Total binding C1 "; and the counts from the control sample C2 as "nonspecific binding C2 ", the percent inhibition of each test antagonist can be determined by the following equation: [formula]

[2] = test system: soluble immune complex induced effects; experiment: Method B: oral activity in inhibiting soluble immune complex induced effects in rats; type: in vivo; settings: rat, 50 mg/kg
Method: Method B: Protocol for Assay of Oral Activity of PAF antagonists in inhibiting soluble immune complex induced effects including decreased arterial blood flow, increased vascular permeability and increased degranulation in rats.
Animals: Female, wistar rats, 190-22-g
2. Weigh the rats the morning after fasting
3. Suspend a test compound in 0.5% methylcellulose with 12 ounce hand homogenizer to yield fine suspension. Administer orally each of the rats with 2 ml of suspension such that the rat received a predetermined amount of the compound varying between 2 and 50 mg compound per kg bodyweight of the rat.
4. Soluble immune complexes (I.C.) were prepared by mixing 2.4 mg human serum albumin (HSA) with 51 mg of the Igby fraction from rabbit anti-HSA antiserum in a final volume of 3.4 ml and incubating at 37° C. for 1 hour. This ratio of HSA to antibody was previously determined to be in slight antigen excess of equivalence and to result in soluble I.C. Following 37° C. incubation, the I.C. was centrifuged at 10,000 xg, 5 minute and the resulting superinstant containing the soluble I.C. stored on ice.
5. Two and one-half hours after dosing, anesthetize the rat with sodium Nembutal (i.P.)
6. Two and three-quarters hours after dosing, cannulate surgically the left femoral vein and artery of the rat. Take a blood sample from the cannulated femoral artery before the I.C. infusion and 1.5, 3, 5, 8, 11, 15, 20, 25 and 30 minutes after the I.C. infusion. Measure the following three parameter for each blood sample:
(§1) (a) the arterial blood flow rate: determined by measuring the time to fill a pre-calibrated 14 μl capillary tube;
(b) the vascular permeability: measured by calculating the increased hematocit which results from loss of plasma from the circulation to extra-vascular spaces.
(c) the circulatory degranulation: determined by assaying the increased plasma level of N-acetylglucosaminidase, a marker lysopomal enzyme.
(§2) 8. Calculate the percent inhibition by the formula: [formula]

[3] = test system: PAF-induced symptoms (increased vascular permeability, increased degranulation); experiment: Oral activity in inhibiting PAF-induced symptoms in rats; type: in vivo; settings: rat
Text: B. In vivo Assay: Protocol for Assay of Oral Activity of PAF-antagonists in inhibiting PAF-induced symptoms including decreased arterial blood flow, increased vascular permeability and increased degranulation in rats
Animals: Female, Wiston rats, 190-220 g
2. Weigh the rats the morning after fasting.
3. Suspend a test compound in 0.5% methylcellulose with 12 ounce hand homogenizer or a sonicator if necessary to yield a fine suspension. […]
4. One hour after dosing, anesthetize the rat with sodium Nembutal (i.p.).
5. One and a quarter hours after dosing, cannulate surgically the left femoral vein and artery of the rat.
6. One and a half hours after dosing, infuse through cannulated vein 0.5 nannomoles (n moles) per 200 g body weight of the rat. Take blood samples from the cannulated femoral artery at 1.5, 3, 5, 8, 11, 15, 20 25 and 30 minute intervals. After the beginning of the PAF infusion as well as just before the PAF infusion, measure the following three parameters for each blood sample:
as §1
(b) the vascular permeability: measured by calculating the increased hematocrit which results from loss of plasma from the circulation to extra-vascular spaces.
(c) the circulatory degranulation: determined by assaying the increased plasma level of N-acetylglucosaminidase, a marker lysosomal enzyme.
7. Determine the percent change in each parameter of a blood sample at each post-PAF interval including the 30 minute interval, relative to the pre-PAF blood values.
as §2

PAF specific receptor binding site on rabbit platelet plasma membranes, sequence (G1TEI7 1-342): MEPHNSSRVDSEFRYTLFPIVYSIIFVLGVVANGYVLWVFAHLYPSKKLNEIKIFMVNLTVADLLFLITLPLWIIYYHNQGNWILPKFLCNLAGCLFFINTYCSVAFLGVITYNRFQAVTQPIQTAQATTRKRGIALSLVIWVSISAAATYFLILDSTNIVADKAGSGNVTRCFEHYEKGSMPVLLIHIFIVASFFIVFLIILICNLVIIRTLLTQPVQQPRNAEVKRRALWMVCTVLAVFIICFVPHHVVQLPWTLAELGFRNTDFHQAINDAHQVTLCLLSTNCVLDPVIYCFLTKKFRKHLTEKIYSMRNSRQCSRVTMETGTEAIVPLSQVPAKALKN

| SMILES | inhibition at 1 µM [1] [%] | inhibition at 0.03 µM [1] [%] | inhibition at 0.1 µM [1] [%] | inhibition at 0.3 µM [1] [%] | inhibition at 5 µM [1] [%] | PAF-antagonist activity (in words) [1] | % inhibition A (increased vascular permeability) ([3]; 20 mg/kg) [%] | % inhibition B (increased degranulation) ([3]; 20 mg/kg) [%] | further results |
| --- | --- | --- | --- | --- | --- | --- | --- | --- | --- |
| COc1ccc([C@H]2S[C@H](c3ccc(OC)c(OC)c3)[C@H](C)[C@H]2C)cc1OC (relative stereo) | 82 | 30 | 68 | 43 | – | – | – | – | – |
| COc1ccc([C@H]2S[C@@H](c3ccc(OC)c(OC)c3)[C@H](C)[C@H]2C)cc1OC (relative stereo) | 53 | – | – | – | 82 | – | – | – | – |
| COc1cc([C@H]2CC[C@H](c3cc(OC)c(OC)c(OC)c3)S2)cc(OC)c1OC (relative stereo) [trans-2,5-bis (3,4,5-trimethoxyphenyl) tetrahydrothiophene] | 100 | 69 | 95 | 100 | – | most active PAF-antagonists | 85 | 83 | % inhibition of decreased arterial blood flow [2]: 40%; % inhibition of increased degranulation [2]: 40%; % inhibition of increased vascular permeability [2]: 73%; % inhibition A (increased vascular permeability) ([3]; 1 mg/kg): 20%; % inhibition B (increased degranulation) ([3]; 1 mg/kg): 49%; % inhibition A (increased vascular permeability) ([3]; 5 mg/kg): 58%; % inhibition B (increased degranulation) ([3]; 5 mg/kg): 60%; % inhibition A (increased vascular permeability) ([3]; 40 mg/kg): 81%; % inhibition B (increased degranulation) ([3]; 40 mg/kg): 81% |
| COc1cc([C@H]2CC[C@H](c3cc(OC)c(OC)c(OC)c3)S2)cnc1OC (relative stereo) [trans-2-(3,4,5-trimethoxyphenyl)-5-(5,6-dimethoxy-3-pyridyl)tetrahydrothiophene] | 80 | – | – | – | 96 | most active PAF-antagonists | – | – | – |
| COc1ccc([C@H]2CC[C@H](c3ccc(OC)c(OC)c3)S2)cc1OC (relative stereo) [H H 3,4-dimethoxyphenyl same as Ar trans, trans-2,5-bis-(3,4-dimethoxyphenyl)tetrahydrothiophene] | 100 | 31 | 43 | 83 | – | – | – | – | – |
| COc1ccc([C@@H]2CC[C@H](c3ccc(OC)c(OC)c3)S2)cc1OC [H H 3,4-dimethoxyphenyl same as Ar cis, cis-2,5-bis-(3,4-dimethoxyphenyl)tetrahydrothiophene] | 62 | – | 25 | 41 | – | – | 41 | 35 | – |

— patent publication US4757084A, “2,5-diaryl tetrahydrothiophenes and analogs thereof as PAF-antagonists” (Merck & Co., Inc., priority 1985, dated 1988)
